Data set [1] has as its system BALB/c mice, severe IR-AKI. As to the kind of experiment: Severe ischemia-reperfusion AKI (IR-AKI). Format: in vivo, mouse. The note with it: 7 days at 50 mg/ml starting 24 hrs after severe IR. How it is done: Surgeries were performed on a water-bath heated platform at 38° C. on 10-12 week old male BALB/c mice. For moderate IR-AKI, mice underwent a right nephrectomy followed by left renal pedicle clamping (800 μm pressure clamp, FST 18052-03). The clamp was released after 26 minutes, and tissue reperfusion was confirmed before completing the surgery. Mice were treated daily with indicated doses of compounds or equivalent volume of 20% 2-hydroxypropyl-β-cyclodextrin in water as vehicle control starting 24 h after injury. Since initial injury with this model is variable, mice were randomly allocated vehicle or m4PTB treatment if their serum creatinine levels were 0.8 to 1.2 mg/dl 24 h post IR injury. Other mice were excluded from further analysis and euthanized. To induce severe IR-AKI, mice underwent left renal pedicle clamping for 30 minutes and delayed contralateral nephrectomy was performed after 8 days.
For mouse studies, kidney sections were stained using Periodic Acid-Schiff (PAS) to assess renal tubular injury. Tubular injury (casts, dilated tubules, epithelial cell blebbing, and vacuolization, loss of brush borders or nuclei) was scored as described. Sirius red staining was performed using an established protocol used to evaluate renal fibrosis/collagen accumulation in kidney sections. To quantify Sirius red staining we used an Olympus BX-41 microscope equipped with an Olympus DP-72 digital camera system and polarizing light filter. Results are expressed as the mean percent fibrosis for all of the images per slide region (Sirius red positive/total surface area).
We used of 2-hydroxypropyl-β-cyclodextrin (CD, Sigma), a low toxicity drug formulation vehicle that has been well characterized and used extensively as a hydrophobic drug delivery vehicle. We could achieve concentrations of up to ˜12 mg/ml of PTBA analogues in 20% CD in water (100 mg/kg in volumes of ˜150-250 μl), and daily IP injections with 200 μl 20% CD in water had no effect on renal functional recovery following IR-AKI. Therefore all studies were performed using compounds dissolved in 20% CD. To assess dosing and biological activity of PTBA analogues in mice, CD1 mice were injected with varying doses of compounds IP and kidneys isolated at different time point for histone extraction and analysis of histone H4 acetylation, a marker of HDAC inhibitor activity, as outlined below. Based on results of these studies, mice were treated daily with 1, 10, 50 or 100 mg/kg of compound or equivalent volume of 20% CD vehicle control starting 24 h after injury.
˜30 μl blood was obtained by tail vein bleed at different time points, and serum samples frozen after confirming that they had not undergone hemolysis (which interferes with enzymatic analysis for serum creatinine). Serum creatinine was evaluated in duplicate samples using a commercially available enzymatic cascade assay (Pointe Scientific, requires only ˜7 μl of serum). […] Blood Urea Nitrogen (BUN) was determined in duplicate samples using a colorimetric enzymatic assay kit (Infinity Urea, Thermo Scientific), and spot urinary albumin/creatinine ratios determined using a mouse albumin ELISA and urinary creatinine assay kit (Albuwell and Creatinine Companion, Exocell).
Compounds 22, 25, 29, 36, and 186 were injected for 7 days at […] starting 24 hrs after severe IR treatment. […] Fibrotic (scar) tissue was measured using Sirus Red after 28 days for various markers of fibrosis.

Data set [2] concerns proximal convoluted tubule cells. Description: Gentamycin-induced AKI in zebrafish larvae: renal cell proliferation (EdU). Format: in vivo. Conditions: 4 μM added 2 days post injection of gentamicin; larvae at 5 days post injection. How it is done: FIG. 42A is a graph showing the results of an AKI model using gentamycin-induced injury. AKI is generated as per a recent publication, Cianciolo Cosenitino, C., et al. ((2010) Intravenous microinjections of zebrafish larvae to study acute kidney injury. JoVE August 4 (42), pii: 2079. doi: 10.3791/2079). Four micromolar m4PTB (UPHD-00025) was added to the zebrafish E3 media in 0.5% DMSO at 2 days post injection of gentamicin and the larvae are scored daily for four days (6 days post injection) as alive or dead, with the final data tallied on day 6 post injection FIG. 42B.
Proliferation of renal cells was examined post AKI for m4PTB in zebrafish larvae (FIG. 43). AKI is generated as above with gentamycin, essentially as described in Example 11. Four μM m4PTB was added 2 days post injection of gentamicin. Zebrafish larvae at 5 days post injection were treated for 1 hour with the thymidine analogue EdU (10 milimolar), which incorporates into dividing (proliferating cells) while the larvae are in the zebrafish E3 media. The larvae where then fixed and processed for histology to count the number of proliferating cells in the proximal convulted tubule (as marked by the antibody 3G8). The number of proliferating cells was divided by the total number of cells in the proximal convoluted tubule to generate the percent of proliferation also known as the proliferation index as shown in FIG. 43.

In data set [3] the test system is pax2a, pax8 expression (kidney field). Description: In situ hybridization for renal progenitor markers pax2a, pax8 / kidney field. It counts as in vivo, zebrafish. How it is done: (§1) PTBA was synthesized as described below. Hydroxyurea and aphidicolin were obtained from Sigma-Aldrich.
In situ hybridization and immunocytochemistry: In situ hybridization was performed as previously described with some modifications. 142 Hybridization temperature was 65° C. Embryos were blocked in 2% blocking reagent (Roche) with 5% sheep serum in MAB (100 mM maleic acid and 150 mM NaCl [pH 7.5]). Whole-mount immunocytochemistry with 1:25 mouse anti-α6F antibody (Developmental Studies Hybridoma Bank) and 1:100 Cy3 secondary antibody (Jackson ImmunoResearch) was performed as described previously. 108 Embryos were embedded in JB-4 for sectioning per the manufacturer's instructions (Polysciences), sectioned at 5 μm, and mounted with Cytoseal 60 (Richard-Allan Scientific).

The subject of data set [4] is lhx1a, pax2a, pax8, ntla transcripts. As to the kind of experiment: Relative qPCR in the trunk region of 10-somite embryos. It counts as in vivo, zebrafish. The note with it: 3 μM. An excerpt:
Conducted as described in WO 2012109527 and in priority U.S. provisional Patent Application No. 61/720,621.
(In qPCR the cycle at which signal appears reflects the starting amount.)

In data set [5] the test system is conditionally-immortalized mouse podocyte cell line. As to the kind of experiment: Podocyte cytotoxicity assay (Cell Titer-Blue). Conditions: 72 hours, up to 30 μM. (The colour change of resazurin is a common sign of viable cells or microbes.)
Description: For the purposes of these experiments, they function as an indicator of renal toxicity. Following 72 hours of treatment with each compound concentrations ranging from 30 μM to 3 nM, podocyte viability was assessed by measuring residual metabolic activity (FIG. 30).
Mouse podocytes were plated at a density of 6,000 cells per 200 μl in 96-well plates to elicit log-phase growth. The indicated PTBA analogs were added at 30 μM, 10 μM, 1 μM, 300 nM, 100 nM, 30 nM, or 3 nM and incubated at 33° C. for 72 hours. The final DMSO concentration was maintained at 0.2% in all treatments except 30 μM (0.6%). After incubation, cytotoxicity was analyzed using the Cell Titer-Blue Cell Viability Assay (Promega) per manufacturer's instructions. Reagent (20 μl) was added to 100 μl of cells and plates were incubated for 2 hours at 37° C. Fluorescence was read at 79 560Ex/590Em on a Gemini SpectramaxXS (Molecular Devices) plate reader. Viability was calculated as a percentage of the DMSO control, which was considered 100% viability. Data represent the results of three independent experiments using duplicate wells for each condition. E50 values were determined from the transformed and normalized data by non-linear regression.
In data set [6] the test system is zebrafish larvae. As to the kind of experiment: Phenotypic scoring of edema and survival in zebrafish larvae at 72 hpf. Format: in vivo.
Description: as §1
Wild type: no visible edema or developmental delay.

The values that follow come from patent publication US10233201B2, “Class of HDAC inhibitors expands the renal progenitor cells population and improves the rate of recovery from acute kidney injury” (University of Pittsburgh—Of the Commonwealth System of …, priority 2012, dated 2019).

The structures appear in SMILES notation.

`COC(=O)CCCSc1ccccc1` [UPHD-00025, methyl 4-(phenylsulfanyl) butanoate]: in data set [1], the “fibrosis after 28 days (Sirus Red, markers of fibrosis)” value is “most reduction in fibrosis” and the “serum creatinine at day 9” value is reported as “better activity”. The “renal cell proliferation (proliferation index)” value in data set [2] was “significantly increased”.

`O=C(O)CCCSc1ccccc1` [PTBA, 4-(phenylthio)butanoic acid]: the “embryos with expanded pax2a expression” value in data set [3] (3 μM, 10-somite embryos) turned out to be 95%. For the same molecule, in data set [3] (3 μM, treatment begun at 16.5 hpf (15 somites)), the “pax2a expression at 24 hpf” value is recorded as “no kidney field expansion”. Also, the “pax2a expression at 24 hpf” value in data set [3] (3 μM, treatment initiated between 2 hpf and 14 hpf (10 somites)) is “expanded pax2a expression”. Moreover, the “effect on size of the kidney field / renal markers (in situ hybridization)” value in data set [3] (screen hits, data not shown) was “appeared to expand the expression of some renal markers”. For the same molecule, in data set [4], the “increase in ntla expression (qPCR)” value worked out at 80%, the “increase in pax8 expression (qPCR)” value came to 50%, the “lhx1a relative transcript (qPCR)” value is “three-fold increase” and the “pax2a expression (qPCR)” value is recorded as “almost two-fold increase”. In data set [5], the “podocyte viability (% of DMSO control)” value is recorded as no less than 50%. The “death by 72 hpf” value in data set [6] (3 μM) was “without causing significant death”. The “edema in 72 hpf larvae” value in data set [6] (3 μM, treatment initiated at 15 somites or later) was “lack of edema”. The “phenotype in initial chemical screen” value in data set [6] (10 μM, larvae at 72 hpf) was “generated pericardial edema”. Further, the “death by 72 hpf” value in data set [6] (10 μM, n=90) was “died before 72 hpf”. In data set [6] (treated from 2 hpf, 3 μM PTBA, 25 μM PBA, 200 nM TSA), the “larvae with edemic phenotype / pericardial edema at 72 hpf” value is listed as 92%.
